# Experimental data taken from PMC3994220 (Nanoscale Research Letters, 2014).
# Assay: Paclitaxel plasma solubility (excess drug equilibrated in rodent plasma, HPLC)
# Format: physicochemical
# Details: 37°C, 24 h equilibration
# Text: where dC/dt is the dissolution rate, D is the solute diffusion coefficient, V is the volume of the dissolution medium, hd is the diffusion boundary thickness, S is the surface area of the solute, Cs is the saturation solubility of the solute, and Ct(t) is the bulk solute concentration. The stability of the crystalline nanosuspension was monitored for a period of 3 weeks for particle size, PXRD, and chemical stability (by HPLC). […] Excess drug was then removed by centrifugation which was followed by protein precipitation, and the concentration was measured by HPLC with an external standard.
smiles,measurement,value
CC(=O)O[C@H]1C(=O)[C@@]2(C)[C@H]([C@H](OC(=O)c3ccccc3)[C@]3(O)C[C@H](OC(=O)[C@H](O)[C@@H](NC(=O)c4ccccc4)c4ccccc4)C(C)=C1C3(C)C)[C@]1(OC(C)=O)CO[C@@H]1C[C@@H]2O [paclitaxel],solubility at 24 h,40 µg/mL
